Holding throughout (format): cell-based, human
One assay relates to MDAMB231. The assay can be described thus: Cell survival, trypan blue counting. The conditions noted are these: for efficacy of the combination of PARPi with AsiDNA versus calculated additivity: 4.8 μM or 16 μM AsiDNA, PARPi doses giving 80% and 50% survival, 6 days; for IC20 / IC50: Homo sapiens, MDA-MB-231, MDAMB231; for IC20: PARPi dose giving 80% survival; for IC50: PARPi dose resulting in 50% survival. The method, then: Cells were grown according to the supplier's instructions.

Another assay concerns 3 BC cell lines. In words: Combined treatment survival in BC cell lines (FIG. 6, 7, 12). The conditions noted are these: AsiDNA 4.8 μM with veliparib 10 and 50 μM; 6 days. The method, then:
(§1) Efficacy of AsiDNA (4. 8 μM), olaparib (0, 0.1 and 1 μM) or both was monitored 6 days after treatment by cell counting after trypan blue labeling. (A) Percentage of living cells relative to non-treated condition (NT). (B) Percentage of dead cells. Data are expressed as mean+Sc.D. of at least 2 independent experiments. Dotted lines indicate the calculated cell survivals if additivity between AsiDNA and olaparib.
Efficacy of AsiDNA (4.8 μM), veliparib (0, 10 and 50 μM) or both was monitored 6 days after treatment by trypan blue staining. (A) Percentage of living cells relative to non-treated condition (NT). (B) Percentage of dead cells. Dotted lines indicate the calculated cell survivals if additivity between AsiDNA and veliparib.
The inventors monitored cell survival to combined treatment of 3 BC and 2 non-tumor cell lines with different sensitivities to Ola and AsiDNA alone (FIG. 6; Table 1). […] However, the combination remained more efficient or at least equal to the expected additive effect at all the tested doses. […] In contrast, the normal cells were insensitive to both, the combined and the single treatments with AsiDNA and Ola (FIG. 6; Table 1).

Assay [1] relates to Breast cancer cell lines MDAMB231. The assay can be described thus: Cell survival with DT01 and PARP inhibitors (Example 1, FIG. 1). The conditions noted are these: DT01 100 or 333 μg/ml plus Olaparib 0.1, 1 μM or Veliparib 1, 10, 50 μM; 6 days. The method, then:
Breast cancer cell lines MDAMB231 were treated with 100 μg/ml (Black, Squares) or 333 μg/ml (Grey, Crosses) of DT01 or no DT01 (Black, Diamond) and exposed to either 0, 0.1 and 1 μM of Olaparib (upper panel) or 1, 10 and 50 μM Veliparib (lower panel). Survival was measured 6 days after treatment using trypan blue to detect living cells. The data are presented as % of the non-treated control.
The human cell lines were grown in complete RPMI (Gibco, Cergy Pontoise, France) supplemented with 10% fetal bovine serum (ATGC, Orléans, France), 1% sodium pyruvate, streptomycin ([…]) and penicillin ([…]) (Invitrogen, Carlsbad, Calif., USA). Cells were maintained at 37° C. under a 5% CO2 atmosphere, at 100% humidity. Treatments were performed by adding nucleotides (DT01 and others) or/and PARP inhibitors at time zero in medium without serum. The medium was changed with fresh medium containing fetal bovine serum 24 hours after beginning of treatment. Cells were let to grow for 4 additional days (5 days after treatment), treated with trypsin and counted for total number of cells. Trypan blue (0.4%) was added for counting the living cells (uncolored) in the population.

In the next assay the test system is 2 non-tumor cell lines. In words: Combined treatment survival in non-tumor cell lines (FIG. 6, 12). Conditions: AsiDNA 4.8 μM with veliparib 10 and 50 μM; 6 days. The method, then: as §1
(A) Percentage of living cells relative to non-treated condition (NT). (B) Percentage of dead cells. Dotted lines indicate the calculated cell survivals if additivity between AsiDNA and veliparib.
The inventors monitored cell survival to combined treatment of 3 BC and 2 non-tumor cell lines with different sensitivities to Ola and AsiDNA alone (FIG. 6; Table 1).

Take `COC1CCN(C(=O)c2cc(Cc3n[nH]c(=O)c4ccccc34)ccc2F)CC1` [AZD2461]: in the assay with MDAMB231, the “efficacy of the combination of PARPi with AsiDNA versus calculated additivity” value is on record as “supra-additive efficacy”, the 20% effect level (IC20) was put at 100 nM and it took 500 nM to reach half-maximal inhibition (IC50).

For `Cn1ncnc1[C@H]1c2n[nH]c(=O)c3cc(F)cc(c23)N[C@@H]1c1ccc(F)cc1` [BMN673, (8S,9R)-5-fluoro-8-(4-fluorophenyl)-9-(1-methyl-1H-1,2,4-triazol-5-yl)-8,9-dihydro-2H-pyrido[4,3,2de]phthalazin-3(7H)-one], in the assay on MDAMB231, the “efficacy of the combination of PARPi with AsiDNA versus calculated additivity” value is “supra-additive efficacy”; the IC20 – broadly, the concentration needed for an effect of 20% – was 0.13 nM; inhibition was half-maximal at 15.4 nM (IC50).

As to `NC(=O)c1ccc(I)c([N+](=O)[O-])c1` [Iniparib], in the assay on MDAMB231, the “efficacy of the combination of PARPi with AsiDNA versus calculated additivity” value is “supra-additive efficacy”, the 20% effect concentration (IC20) was determined as 46000 nM and the half-inhibitory concentration (IC50) (usually the midpoint of a concentration-inhibition curve) turned out to be 49500 nM.

With `NC(=O)c1cccc2cn(-c3ccc([C@@H]4CCCNC4)cc3)nc12` [Niraparib], in the assay with MDAMB231, the “efficacy of the combination of PARPi with AsiDNA versus calculated additivity” value is given as “supra-additive efficacy”, the 20% effect level (IC20) was put at 100 nM and the 50% inhibitory concentration (IC50) was 700 nM.

On to `CNCc1ccc(-c2[nH]c3cc(F)cc4c3c2CCNC4=O)cc1` [Rucaparib, 8-Fluoro-2-{4-[(methylamino)methyl]phenyl}-1,3,4,5-tetrahydro-6H-azepino[5,4,3-cd]indol-6-one], for which, in the assay on MDAMB231, the “efficacy of the combination of PARPi with AsiDNA versus calculated additivity” value is on record as “supra-additive efficacy”, the IC20 was found to be 400 nM and half-maximal inhibition (IC50) was put at 1800 nM.

With `C[C@]1(c2nc3c(C(N)=O)cccc3[nH]2)CCCN1` [Veliparib, 2-((fi)-2-methylpyrrolidin-2-yl)-1W-benzimidazole-4-carboxamide], the “effect of the combined treatment with AsiDNA” value in the assay with 3 BC cell lines is “synergistic effect”. For the same compound, the “survival to combined treatment with DT01 versus expected added effect of both single treatments” value in assay [1] was “synergic effect”. In the assay with 2 non-tumor cell lines, the “synergistic effect of the combined treatment with AsiDNA” value is reported as “absent”.
